Tests used:
[1] = High-temperature stability test (60° C., open container); assay type: physicochemical
[2] = High-humidity stability test (40° C./75% humidity, open); assay type: physicochemical
[3] = Solubility of different salt types in biological vehicle (SGF, FeSSIF, FaSSIF), HPLC; assay type: physicochemical; conditions: 37° C.; for pH value: supernatant
Procedure: 1 ml of biological vehicle solution (FaSSIF, FeSSIF and SGF) was pipetted respectively into a 1.5-ml glass bottle, and then added to the above-mentioned solution at a gradient of 2 mg until 10 mg or the mixture was saturated. The mixture was prepared in 2 parts in parallel, and then shaken at 37° C. Samples were taken after 4 hours and 24 hours, respectively. The samples taken were centrifuged quickly, and the supernatant was measured for pH value and diluted with a diluent to a suitable multiple, and then the concentration was determined by HPLC.

[4] = test system: liver cancer patients; conditions: phase 2 clinical trial, after treatment; cited from earlier work
[5] = Hygroscopicity by dynamic vapor sorption (DVS); assay type: physicochemical; conditions: 25° C./80% RH
Procedure: In the present invention, the dynamic vapor sorption (DVS) is determined by using the following method: instrument model: SMS DVS Advantage dynamic vapor sorption instrument
Test condition: place 10-15 mg of sample in a DVS sample disk for testing.
The detailed DVS parameters are as follows: […]
balance: dm/dt=0.01%/min (minimum: 10 min; maximum: 180 min) drying: dry for 120 min at 0% RH
RH (%) test step range: 0%-90%-0%
The classification of hygroscopicity evaluation is as follows:
1. Experimental material: SMS DVS Advantage dynamic vapor sorption instrument
2. Experimental method: an appropriate amount of the crystal form B of the compound of formula (II) was placed in a DVS sample disk for DVS analysis.

[6] = Approximate solubility in pure water; assay type: physicochemical; conditions: thermodynamic from solid, room temperature, 2 mg sample, read-out: Approximate solubility S
Procedure: 2 mg of the sample of each compound was weighed and added to a 1.5-ml glass vial, and a certain volume of pure water was added with a pipette, and ultrasonic solubilization was performed appropriately. The study was conducted at room temperature and tested for solubilization.

[7] = molecular target: T1, TGF-βRI (Homo sapiens, UniProt P36897); experiment: TGFβ-RI receptor binding activity screening in vitro (enzyme activity, IC50)
T1 sequence (P36897 34-503): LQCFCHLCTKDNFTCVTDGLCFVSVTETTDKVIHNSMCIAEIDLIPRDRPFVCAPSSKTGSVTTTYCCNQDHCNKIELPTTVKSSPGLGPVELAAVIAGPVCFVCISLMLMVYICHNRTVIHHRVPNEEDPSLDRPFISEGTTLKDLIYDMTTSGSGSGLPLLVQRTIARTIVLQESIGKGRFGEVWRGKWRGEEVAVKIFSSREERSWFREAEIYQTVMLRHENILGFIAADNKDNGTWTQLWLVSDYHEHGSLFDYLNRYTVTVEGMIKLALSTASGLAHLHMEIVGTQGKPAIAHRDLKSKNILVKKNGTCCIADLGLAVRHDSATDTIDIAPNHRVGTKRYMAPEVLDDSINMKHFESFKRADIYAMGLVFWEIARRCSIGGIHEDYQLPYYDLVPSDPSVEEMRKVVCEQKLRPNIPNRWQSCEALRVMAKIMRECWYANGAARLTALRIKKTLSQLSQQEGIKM

Cc1cccc(-c2nn3c(c2-c2ccc4ncnn4c2/C=C/C(N)=O)CCC3)n1
Content ([1]; day 0): 99.0%
Study on crystal form ([1]; day 0): Crystal form A
Total impurities ([1]; day 0): 0.57%
Content ([1]; day 30): 97.5%
Study on crystal form ([1]; day 30): Crystal form A
Total impurities ([1]; day 30): 0.56%
Content ([1]; day 60): 100.0%
Study on crystal form ([1]; day 60): Crystal form A
Total impurities ([1]; day 60): 0.58%
Content ([1]; day 90): 99.9%
Study on crystal form ([1]; day 90): Crystal form A
Total impurities ([1]; day 90): 0.55%
Stability under high temperature conditions (conclusion) ([1]; up to 90 days): Conclusion: The high-temperature stability test shows that crystal form A of the compound of formula (I) has good stability under high temperature conditions.
Content ([2]; day 0): 99.0%
Total impurities ([2]; day 0): 0.57%
Content ([2]; day 30): 100.6%
Total impurities ([2]; day 30): 0.57%
Content ([2]; day 60): 101.1%
Total impurities ([2]; day 60): 0.58%
Content ([2]; day 90): 100.4%
Total impurities ([2]; day 90): 0.58%
Stability under high humidity conditions (conclusion) ([2]; up to 90 days): Conclusion: The high-humidity stability test shows that the crystal form A of the compound of formula (I) has good stability under high humidity conditions.

CS(=O)(=O)O.Cc1cccc(-c2nn3c(c2-c2ccc4ncnn4c2/C=C/C(N)=O)CCC3)n1
Concentration ([3]; FaSSIF, 4 hours): 5159 µg/mL
State ([3]; FaSSIF, 4 hours): soluble
pH value ([3]; FaSSIF, 4 hours): 4.16
Concentration ([3]; FaSSIF, 24 hours): 3704 µg/mL
State ([3]; FaSSIF, 24 hours): turbid
pH value ([3]; FaSSIF, 24 hours): 3.71
Concentration ([3]; FeSSIF, 4 hours): 852 µg/mL
State ([3]; FeSSIF, 4 hours): turbid
pH value ([3]; FeSSIF, 4 hours): 4.58
Concentration ([3]; FeSSIF, 24 hours): 925 µg/mL
State ([3]; FeSSIF, 24 hours): turbid
pH value ([3]; FeSSIF, 24 hours): 4.60
Concentration ([3]; SGF, 4 hours): 5103 µg/mL
State ([3]; SGF, 4 hours): soluble
pH value ([3]; SGF, 4 hours): 2.08
Concentration ([3]; SGF, 24 hours): 5163 µg/mL
State ([3]; SGF, 24 hours): soluble
pH value ([3]; SGF, 24 hours): 2.14

Cc1cccc(-c2nn3c(c2-c2ccnc4ccc(C(N)=O)cc24)CCC3)n1 [LY2157299, Galunisertib]
Patients with a decrease in serum alpha-fetoprotein (AFP) levels by at least 20% [4]: approximately 23%

Cc1ccc(S(=O)(=O)O)cc1.Cc1cccc(-c2nn3c(c2-c2ccc4ncnn4c2/C=C/C(N)=O)CCC3)n1
Classification of hygroscopicity [5]: slightly hygroscopic
Hygroscopic weight gain ΔW [5]: 0.673%

Cc1ccc(S(=O)(=O)O)cc1.Cc1cccc(-c2nn3c(c2-c2ccc4ncnn4c2/C=C/C(N)=O)CCC3)n1 [Compound of formula (II)]
Concentration ([3]; FaSSIF, 4 hours): 10150 µg/mL
State ([3]; FaSSIF, 4 hours): clear
pH value ([3]; FaSSIF, 4 hours): 3.15
Concentration ([3]; FaSSIF, 24 hours): 10720 µg/mL
State ([3]; FaSSIF, 24 hours): clear
pH value ([3]; FaSSIF, 24 hours): 3.13
Concentration ([3]; FeSSIF, 4 hours): 10840 µg/mL
State ([3]; FeSSIF, 4 hours): clear
pH value ([3]; FeSSIF, 4 hours): 1.89
Concentration ([3]; FeSSIF, 24 hours): 10580 µg/mL
State ([3]; FeSSIF, 24 hours): clear
pH value ([3]; FeSSIF, 24 hours): 1.87
Concentration ([3]; SGF, 4 hours): 1610 µg/mL
State ([3]; SGF, 4 hours): Suspension
pH value ([3]; SGF, 4 hours): 3.45
Concentration ([3]; SGF, 24 hours): 1470 µg/mL
State ([3]; SGF, 24 hours): Suspension
pH value ([3]; SGF, 24 hours): 4.26
solubility [6]: 49 to 98 mg/mL

Cc1cccc(-c2nn3c(c2-c2ccc4ncnn4c2/C=C/C(N)=O)CCC3)n1.Cl [Hydrochloride]
Concentration ([3]; FaSSIF, 4 hours): 4378 µg/mL
State ([3]; FaSSIF, 4 hours): soluble
pH value ([3]; FaSSIF, 4 hours): 3.96
Concentration ([3]; FaSSIF, 24 hours): 4195 µg/mL
State ([3]; FaSSIF, 24 hours): soluble
pH value ([3]; FaSSIF, 24 hours): 3.97
Concentration ([3]; FeSSIF, 4 hours): 1028 µg/mL
State ([3]; FeSSIF, 4 hours): turbid
pH value ([3]; FeSSIF, 4 hours): 4.52
Concentration ([3]; FeSSIF, 24 hours): 1065 µg/mL
State ([3]; FeSSIF, 24 hours): turbid
pH value ([3]; FeSSIF, 24 hours): 4.52
Concentration ([3]; SGF, 4 hours): 4343 µg/mL
State ([3]; SGF, 4 hours): soluble
pH value ([3]; SGF, 4 hours): 2.04
Concentration ([3]; SGF, 24 hours): 4427 µg/mL
State ([3]; SGF, 24 hours): soluble
pH value ([3]; SGF, 24 hours): 2.05

Cc1cccc(-c2nn3c(c2-c2ccc4ncnn4c2/C=C/C(N)=O)CCC3)n1 [Compound of formula (I)]
Concentration ([3]; FaSSIF, 4 hours): 352 µg/mL
State ([3]; FaSSIF, 4 hours): turbid
pH value ([3]; FaSSIF, 4 hours): 6.45
Concentration ([3]; FaSSIF, 24 hours): 421 µg/mL
State ([3]; FaSSIF, 24 hours): turbid
pH value ([3]; FaSSIF, 24 hours): 6.42
Concentration ([3]; FeSSIF, 4 hours): 565 µg/mL
State ([3]; FeSSIF, 4 hours): turbid
pH value ([3]; FeSSIF, 4 hours): 4.97
Concentration ([3]; FeSSIF, 24 hours): 637 µg/mL
State ([3]; FeSSIF, 24 hours): turbid
pH value ([3]; FeSSIF, 24 hours): 4.95
Concentration ([3]; SGF, 4 hours): 1997 µg/mL
State ([3]; SGF, 4 hours): soluble
pH value ([3]; SGF, 4 hours): 2.37
Concentration ([3]; SGF, 24 hours): 1994 µg/mL
State ([3]; SGF, 24 hours): soluble
pH value ([3]; SGF, 24 hours): 2.43
solubility [6]: < 1.9 mg/mL
IC50 [7]: 40 nM

Cc1cccc(-c2nn3c(c2-c2ccc4ncnn4c2/C=C/C(N)=O)CCC3)n1 [Sulphate]
Concentration ([3]; FaSSIF, 4 hours): 4998 µg/mL
State ([3]; FaSSIF, 4 hours): soluble
pH value ([3]; FaSSIF, 4 hours): 2.44
Concentration ([3]; FaSSIF, 24 hours): 5000 µg/mL
State ([3]; FaSSIF, 24 hours): soluble
pH value ([3]; FaSSIF, 24 hours): 2.50
Concentration ([3]; FeSSIF, 4 hours): 1530 µg/mL
State ([3]; FeSSIF, 4 hours): turbid
pH value ([3]; FeSSIF, 4 hours): 4.22
Concentration ([3]; FeSSIF, 24 hours): 1504 µg/mL
State ([3]; FeSSIF, 24 hours): turbid
pH value ([3]; FeSSIF, 24 hours): 4.21
Concentration ([3]; SGF, 4 hours): 4885 µg/mL
State ([3]; SGF, 4 hours): soluble
pH value ([3]; SGF, 4 hours): 1.77
Concentration ([3]; SGF, 24 hours): 4952 µg/mL
State ([3]; SGF, 24 hours): soluble
pH value ([3]; SGF, 24 hours): 1.84

Reference: patent US11236112B2 (GENFLEET THERAPEUTICS (SHANGHAI) INC., priority 2017, dated 2022)
